According to US10670605B2, “Cysteine reactive probes and uses thereof” (The Scripps Research Institute, priority 2015, dated 2020):

Experiments:
Test in all cases: Competitive isoTOP-ABPP, cell lysates
Format in all cases: binding
[1] = target: DCUN1D1 C115 (Q96GG9) (Homo sapiens, UniProt Q96GG9); details: for isoTOP-ABPP ratio (reactivity profile), Q96GG9_C115: 500 μm in-vitro ramos; for isoTOP-ABPP ratio, Q96GG9_C115: 500 μM, invitro
[2] = target: IDH1 C269 (O75874) (Homo sapiens, UniProt O75874); details: for R value (DMSO/fragment): 250 μM, in vitro
[3] = target: T1, MGMT C150 (P16455) (Homo sapiens, UniProt P16455); details: for isoTOP-ABPP ratio (reactivity profile), P16455_C150: 500 μm in-vitro ramos
T1 sequence (P16455 1-207): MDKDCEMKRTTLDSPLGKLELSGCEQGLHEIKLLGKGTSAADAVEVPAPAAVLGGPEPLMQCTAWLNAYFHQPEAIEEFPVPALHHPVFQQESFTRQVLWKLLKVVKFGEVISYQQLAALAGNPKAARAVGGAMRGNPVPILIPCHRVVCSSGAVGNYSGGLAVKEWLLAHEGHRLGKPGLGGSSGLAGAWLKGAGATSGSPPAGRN

[4] = target: T2, PDE12 C108 (Q6L8Q7) (Homo sapiens, UniProt Q6L8Q7); details: for isoTOP-ABPP reactivity ratio, Q6L8Q7_C108: 500 μm, in-vitro_ramos_231
T2 sequence (Q6L8Q7 43-609): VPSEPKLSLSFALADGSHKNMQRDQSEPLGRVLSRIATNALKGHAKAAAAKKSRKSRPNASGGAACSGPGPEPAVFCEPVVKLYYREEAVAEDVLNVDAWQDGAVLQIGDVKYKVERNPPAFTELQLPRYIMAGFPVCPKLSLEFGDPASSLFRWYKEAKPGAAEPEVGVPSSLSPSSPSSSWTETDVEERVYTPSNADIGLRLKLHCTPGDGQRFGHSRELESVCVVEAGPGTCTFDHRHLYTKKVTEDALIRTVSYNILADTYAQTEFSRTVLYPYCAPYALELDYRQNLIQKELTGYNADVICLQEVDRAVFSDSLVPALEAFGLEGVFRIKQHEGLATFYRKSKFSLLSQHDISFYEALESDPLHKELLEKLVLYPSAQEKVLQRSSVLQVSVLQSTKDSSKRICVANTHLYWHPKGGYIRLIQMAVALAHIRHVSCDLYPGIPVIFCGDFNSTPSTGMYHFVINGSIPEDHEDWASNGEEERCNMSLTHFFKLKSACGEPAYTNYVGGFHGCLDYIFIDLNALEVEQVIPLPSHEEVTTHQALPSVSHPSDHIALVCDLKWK

[5] = target: XPO1 C34 (O14980) (Homo sapiens, UniProt O14980); details: for isoTOP-ABPP reactivity profile ratio, O14980_C34 / isoTOP-ABPP reactivity ratio, O14980_C34: 500 μm; for R value (DMSO/fragment): 250 μM, in vitro; for isoTOP-ABPP ratio, O14980_C34: 500 μM, invitro
[6] = target: T3, IDH2 C308 (P48735) (Homo sapiens, UniProt P48735); details: for isoTOP-ABPP reactivity profile ratio, P48735_C308: 500 μm, in-vitro_ramos_231
T3 sequence (P48735 40-452): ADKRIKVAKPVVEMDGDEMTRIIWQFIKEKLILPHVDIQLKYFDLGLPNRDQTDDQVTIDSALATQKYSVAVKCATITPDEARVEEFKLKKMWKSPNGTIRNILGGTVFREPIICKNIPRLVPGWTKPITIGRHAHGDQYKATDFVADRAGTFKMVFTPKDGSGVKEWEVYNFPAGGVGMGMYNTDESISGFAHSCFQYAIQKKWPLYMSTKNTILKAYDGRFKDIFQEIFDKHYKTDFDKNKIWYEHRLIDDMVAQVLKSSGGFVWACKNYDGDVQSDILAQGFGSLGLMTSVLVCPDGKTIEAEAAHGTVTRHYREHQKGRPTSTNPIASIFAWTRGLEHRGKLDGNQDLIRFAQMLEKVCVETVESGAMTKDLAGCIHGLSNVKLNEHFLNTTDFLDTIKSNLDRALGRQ

XPO1 C34 (O14980), sequence (O14980 whole entry, the tested form may be a part): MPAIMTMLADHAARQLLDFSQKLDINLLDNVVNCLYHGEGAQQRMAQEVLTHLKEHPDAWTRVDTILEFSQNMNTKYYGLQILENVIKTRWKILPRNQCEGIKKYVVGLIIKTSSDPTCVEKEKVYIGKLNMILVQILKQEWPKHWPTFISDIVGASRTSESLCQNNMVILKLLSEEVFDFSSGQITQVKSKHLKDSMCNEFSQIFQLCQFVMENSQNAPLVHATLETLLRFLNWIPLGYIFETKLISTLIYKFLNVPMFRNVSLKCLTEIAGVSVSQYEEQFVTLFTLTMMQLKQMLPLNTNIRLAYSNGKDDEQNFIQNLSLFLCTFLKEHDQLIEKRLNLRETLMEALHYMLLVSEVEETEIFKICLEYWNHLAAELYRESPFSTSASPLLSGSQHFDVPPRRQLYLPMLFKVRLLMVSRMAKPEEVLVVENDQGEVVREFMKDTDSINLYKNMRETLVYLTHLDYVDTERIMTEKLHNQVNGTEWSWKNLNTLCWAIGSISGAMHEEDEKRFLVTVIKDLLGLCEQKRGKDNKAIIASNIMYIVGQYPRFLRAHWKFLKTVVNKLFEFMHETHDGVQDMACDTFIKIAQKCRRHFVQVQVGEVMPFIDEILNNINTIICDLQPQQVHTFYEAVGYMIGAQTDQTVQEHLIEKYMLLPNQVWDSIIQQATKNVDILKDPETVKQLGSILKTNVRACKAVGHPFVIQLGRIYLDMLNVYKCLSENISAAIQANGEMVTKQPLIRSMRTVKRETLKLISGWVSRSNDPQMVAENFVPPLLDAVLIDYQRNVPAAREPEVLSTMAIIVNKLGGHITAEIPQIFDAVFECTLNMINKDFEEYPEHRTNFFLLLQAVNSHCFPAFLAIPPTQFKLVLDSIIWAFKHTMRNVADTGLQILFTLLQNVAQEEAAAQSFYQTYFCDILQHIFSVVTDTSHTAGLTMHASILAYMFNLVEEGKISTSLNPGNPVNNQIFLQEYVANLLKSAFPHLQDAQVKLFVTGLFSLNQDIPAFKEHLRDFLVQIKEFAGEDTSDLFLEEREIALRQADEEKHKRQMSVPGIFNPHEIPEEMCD
DCUN1D1 C115 (Q96GG9), sequence (Q96GG9 whole entry, the tested form may be a part): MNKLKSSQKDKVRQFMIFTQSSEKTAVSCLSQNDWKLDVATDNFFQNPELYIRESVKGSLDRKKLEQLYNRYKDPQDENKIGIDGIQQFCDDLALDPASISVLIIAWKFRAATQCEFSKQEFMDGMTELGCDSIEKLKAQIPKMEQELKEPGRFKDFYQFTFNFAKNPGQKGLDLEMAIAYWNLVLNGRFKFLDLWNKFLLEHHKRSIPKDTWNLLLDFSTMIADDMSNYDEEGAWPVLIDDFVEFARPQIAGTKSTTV
IDH1 C269 (O75874), sequence (O75874 whole entry, the tested form may be a part): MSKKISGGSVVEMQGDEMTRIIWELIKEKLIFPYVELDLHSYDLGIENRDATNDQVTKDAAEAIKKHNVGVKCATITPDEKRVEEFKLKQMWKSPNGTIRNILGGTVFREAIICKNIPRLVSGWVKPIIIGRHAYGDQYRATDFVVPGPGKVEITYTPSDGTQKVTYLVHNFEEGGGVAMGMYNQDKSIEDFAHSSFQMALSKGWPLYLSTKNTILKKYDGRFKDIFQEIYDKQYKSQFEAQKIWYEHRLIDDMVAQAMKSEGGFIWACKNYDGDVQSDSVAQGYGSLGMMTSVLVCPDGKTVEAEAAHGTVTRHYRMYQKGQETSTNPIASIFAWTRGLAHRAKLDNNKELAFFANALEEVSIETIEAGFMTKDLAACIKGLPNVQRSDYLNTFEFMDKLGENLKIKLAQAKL

For `C=CC(=O)N(Cc1cccnc1)c1ccc(Oc2ccccc2)c(C(F)(F)F)c1` [compound 15], the “isoTOP-ABPP ratio (reactivity profile), Q96GG9_C115” value [1] was 0.8, the “isoTOP-ABPP ratio (reactivity profile), O75874_C269” value ([2]; 500 μm in-vitro ramos) was 0.6 and the “isoTOP-ABPP ratio (reactivity profile), P16455_C150” value [3] was 1.9. The “isoTOP-ABPP ratio, Q6L8Q7_C108” value ([4]; 500 μM, invitro, 231) was 1.1 and the “isoTOP-ABPP ratio (reactivity profile), O14980_C34” value ([5]; 500 μm in-vitro ramos) was 1.2.
`COc1cc(NC(=O)CCl)cc(OC)c1` [compound 43] was tested, and the “isoTOP-ABPP reactivity profile ratio, O75874_C269” value ([2]; 500 μm, in-vitro_ramos_231) was 0.8, the “isoTOP-ABPP reactivity profile ratio, P48735_C308” value [6] was 0.8 and the “isoTOP-ABPP reactivity profile ratio, P16455_C150” value ([3]; 500 μm, in-vitro_ramos) was 20.0. The “isoTOP-ABPP reactivity profile ratio, O14980_C34” value ([5]; in-vitro_ramos_231) was 1.1.
With `C=CC(=O)N1CCC(c2noc3ccc(F)cc23)CC1` [compound 37] the “isoTOP-ABPP reactivity ratio, Q96GG9_C115” value ([1]; 500 μm, in-vitro_ramos) was 0.8, the “isoTOP-ABPP reactivity ratio, P16455_C150” value ([3]; 500 μm, in-vitro_ramos) was 1.0 and the “isoTOP-ABPP reactivity ratio, O14980_C34” value ([5]; in-vitro_ramos) was 0.9.
For `COc1ccc(C2CC(c3cccs3)=NN2C(=O)CCl)cc1` (stereo not shown) [compound 4], the “R value (DMSO/fragment)” value ([2]; MDA-MB-231) was 1.6, the “R value (DMSO/fragment)” value ([2]; Ramos) was 0.6 and the “R value (DMSO/fragment)” value ([6]; 250 μM, in vitro, MDA-MB-231) was 0.7. For the same compound, the “R value (DMSO/fragment)” value ([3]; 250 μM, in vitro, Ramos) was 6.9, the “R value (DMSO/fragment)” value ([5]; MDA-MB-231) was 1.0 and the “R value (DMSO/fragment)” value ([5]; Ramos) was 0.2.
For `O=C(/C=C/c1ccccc1)Nc1cc(C(F)(F)F)cc(C(F)(F)F)c1` [compound 26], the “isoTOP-ABPP ratio (reactivity profile), Q96GG9_C115” value [1] was 0.9, the “isoTOP-ABPP ratio (reactivity profile), P16455_C150” value [3] was 0.9 and the “isoTOP-ABPP ratio (reactivity profile), Q6L8Q7_C108” value ([4]; 500 μm in-vitro ramos) was 1.1. For the same compound, the “isoTOP-ABPP ratio (reactivity profile), O14980_C34” value ([5]; 500 μm in-vitro ramos) was 0.9.
`O=C(CCl)Nc1cccc2ncccc12` [compound 51] was tested, and the “isoTOP-ABPP reactivity profile ratio, Q96GG9_C115” value ([1]; 500 μm, in-vitro_ramos) was 0.8, the “isoTOP-ABPP reactivity profile ratio, O14980_C34” value ([5]; in-vitro_ramos) was 1.0 and the “isoTOP-ABPP reactivity profile ratio, O14980_C34” value ([5]; in-vitro_ramos_231) was 0.9.
With `COc1ccccc1OCCNC(=O)CCl` [compound 28] the “isoTOP-ABPP ratio (reactivity profile), O75874_C269” value ([2]; 500 μm in-vitro ramos_231) was 1.1, the “isoTOP-ABPP ratio (reactivity profile), P48735_C308” value ([6]; 500 μm in-vitro ramos_231) was 0.9 and the “isoTOP-ABPP ratio (reactivity profile), P16455_C150” value [3] was 1.7. For the same compound, the “isoTOP-ABPP ratio (reactivity profile), Q6L8Q7_C108” value ([4]; 500 μm in-vitro ramos) was 1.2, the “isoTOP-ABPP ratio (reactivity profile), Q6L8Q7_C108” value ([4]; 500 μm in-vitro ramos_231) was 1.0 and the “isoTOP-ABPP ratio (reactivity profile), O14980_C34” value ([5]; 500 μm in-vitro ramos) was 0.9. For the same compound, the “isoTOP-ABPP ratio (reactivity profile), O14980_C34” value ([5]; 500 μm in-vitro ramos_231) was 0.8.
With `O=C(CCl)N1CCN(S(=O)(=O)c2ccccc2F)CC1` [compound 10] the “isoTOP-ABPP ratio, Q96GG9_C115” value [1]; 231 was 1.3, the “isoTOP-ABPP ratio, Q96GG9_C115” value ([1]; ramos) was 1.0 and the “isoTOP-ABPP ratio, O75874_C269” value ([2]; 500 μM, invitro, 231) was 20.0. The “isoTOP-ABPP ratio, P48735_C308” value ([6]; 500 μM, invitro, 231) was 1.1, the “isoTOP-ABPP ratio, P16455_C150” value ([3]; 500 μM, invitro, ramos) was 20.0 and the “isoTOP-ABPP ratio, O14980_C34” value [5]; 231 was 1.2. For the same compound, the “isoTOP-ABPP ratio, O14980_C34” value ([5]; ramos) was 0.7.
With `CC1CCc2ccccc2N1C(=O)CCl` (stereo not shown) [compound 45] the “isoTOP-ABPP reactivity profile ratio, O75874_C269” value ([2]; 500 μm, in-vitro_ramos_231) was 20.0, the “isoTOP-ABPP reactivity profile ratio, P48735_C308” value [6] was 1.0 and the “isoTOP-ABPP reactivity profile ratio, O14980_C34” value ([5]; in-vitro_ramos_231) was 1.8.
With `O=C(CCl)Nc1ccccc1C1CCCCCC1` [compound 35] the “isoTOP-ABPP reactivity ratio, Q96GG9_C115” value ([1]; 500 μm, in-vitro_ramos) was 0.9, the “isoTOP-ABPP reactivity ratio, P16455_C150” value ([3]; 500 μm, in-vitro_ramos) was 1.3 and the “isoTOP-ABPP reactivity ratio, Q6L8Q7_C108” value [4] was 0.8. For the same compound, the “isoTOP-ABPP reactivity ratio, O14980_C34” value ([5]; in-vitro_ramos) was 1.3 and the “isoTOP-ABPP reactivity ratio, O14980_C34” value ([5]; in-vitro_ramos_231) was 0.8.
With `C=CC(=O)N(c1ccccc1)C1CCCCC1` [compound 46] the “isoTOP-ABPP reactivity profile ratio, O75874_C269” value ([2]; 500 μm, in-vitro_ramos_231) was 0.6, the “isoTOP-ABPP reactivity profile ratio, P48735_C308” value [6] was 0.2 and the “isoTOP-ABPP reactivity profile ratio, O14980_C34” value ([5]; in-vitro_ramos_231) was 1.0.
In the case of `Cc1ccc(C=C(C#N)C(=O)NCCN2CCOCC2)cc1` [compound 41], the “isoTOP-ABPP reactivity ratio, O75874_C269” value ([2]; 500 μm, in-vitro_ramos_231) is reported as 0.8, the “isoTOP-ABPP reactivity ratio, P16455_C150” value ([3]; 500 μm, in-vitro_ramos) is reported as 0.9 and the “isoTOP-ABPP reactivity ratio, Q6L8Q7_C108” value [4] is reported as 1.3. The “isoTOP-ABPP reactivity ratio, O14980_C34” value ([5]; in-vitro_ramos) was 2.0 and the “isoTOP-ABPP reactivity ratio, O14980_C34” value ([5]; in-vitro_ramos_231) was 3.1.
For `O=C(CCl)N(Cc1ccc(F)cc1)C12CC3CC(CC(C3)C1)C2` [compound 34], the “isoTOP-ABPP reactivity ratio, P16455_C150” value ([3]; 500 μm, in-vitro_ramos) was 1.4, the “isoTOP-ABPP reactivity ratio, O14980_C34” value ([5]; in-vitro_ramos) was 1.1 and the “isoTOP-ABPP reactivity ratio, O14980_C34” value ([5]; in-vitro_ramos_231) was 0.8.
